Test results as given in ChEMBL document CHEMBL3885861, “Open TG-GATES”.

Organism: Rattus norvegicus
Test: Open TG-GATES - Regimen: Single
Format: toxicity, organism-based, Sprague-Dawley
Design: regimen Single, gender Male, age 6 weeks
Details: in vivo, po, 0 mg/kg, route gavage, dose level Control; for APTT / Bas / Eos / Fbg / Hb / Ht / Lym / MCH / MCHC / MCV / Mono / Neu / PT / Plat / RBC / Ret / WBC: tissue Blood; for KIDNEY_L / KIDNEY_R / KIDNEY_TOTAL: tissue Kidney; for LIVER: tissue Liver; for A/G / ALP / ALT / AST / BUN / CRE / Ca / Cl / DBIL / GLC / IP / K / LDH / Na / PL / RALB / TBIL / TC / TG / TP / gamma-GTP: tissue Plasma

Structure (SMILES): NC(=O)N/N=C/c1ccc([N+](=O)[O-])o1 [NITROFURAZONE]
- TERMINAL_BW (3 h): 181.6 g
- APTT (3 h): 15.7 s
- Bas (3 h): 0%
- Eos (3 h): 0.6%
- Fbg (3 h): 250 mg/dL
- Hb (3 h): 12.7 g/dL
- Ht (3 h): 39.7%
- Lym (3 h): 79%
- MCH (3 h): 21.6 pg
- MCHC (3 h): 32%
- MCV (3 h): 67.7 fL
- Mono (3 h): 2.8%
- Neu (3 h): 17%
- PT (3 h): 14.7 s
- Plat (3 h): 114.3 x10_4/uL
- RBC (3 h): 586.4 x10_4/ul
- Ret (3 h): 10.9%
- WBC (3 h): 77.6 x10_2/uL
- KIDNEY_L (3 h): 0.8 g
- KIDNEY_R (3 h): 0.8 g
- KIDNEY_TOTAL (3 h): 1.6 g
- LIVER (3 h): 8.2 g
- A/G (3 h): 0.9
- ALP (3 h): 1508.2 IU/L
- ALT (3 h): 45.4 IU/L
- AST (3 h): 78 IU/L
- BUN (3 h): 9.8 mg/dL
- CRE (3 h): 0.2 mg/dL
- Ca (3 h): 11.3 mg/dL
- Cl (3 h): 104.8 meq/L
- DBIL (3 h): 0.012 mg/dL
- GLC (3 h): 179.2 mg/dL
- IP (3 h): 9.6 mg/dL
- K (3 h): 4.1 meq/L
- LDH (3 h): 49.8 IU/L
- Na (3 h): 141 meq/L
- PL (3 h): 141.8 mg/dL
- RALB (3 h): 2.4 g/dL
- TBIL (3 h): 0.056 mg/dL
- TC (3 h): 80.4 mg/dL
- TG (3 h): 54.6 mg/dL
- TP (3 h): 5.2 g/dL
- gamma-GTP (3 h): 1.2 IU/L
- TERMINAL_BW (6 h): 180.8 g
- APTT (6 h): 16.4 s
- Bas (6 h): 0.2%
- Eos (6 h): 0.6%
- Fbg (6 h): 266.6 mg/dL
- Hb (6 h): 12.7 g/dL
- Ht (6 h): 39.4%
- Lym (6 h): 73.2%
- MCH (6 h): 22.1 pg
- MCHC (6 h): 32.2%
- MCV (6 h): 68.6 fL
- Mono (6 h): 3%
- Neu (6 h): 21.8%
- PT (6 h): 14.6 s
- Plat (6 h): 118.4 x10_4/uL
- RBC (6 h): 576.2 x10_4/ul
- Ret (6 h): 11%
- WBC (6 h): 90.9 x10_2/uL
- KIDNEY_L (6 h): 0.8 g
- KIDNEY_R (6 h): 0.9 g
- KIDNEY_TOTAL (6 h): 1.7 g
- LIVER (6 h): 7.4 g
- A/G (6 h): 0.9
- ALP (6 h): 1461 IU/L
- ALT (6 h): 44.4 IU/L
- AST (6 h): 77.2 IU/L
- BUN (6 h): 8 mg/dL
- CRE (6 h): 0.2 mg/dL
- Ca (6 h): 11 mg/dL
- Cl (6 h): 105 meq/L
- DBIL (6 h): 0.01 mg/dL
- GLC (6 h): 169.8 mg/dL
- IP (6 h): 10.3 mg/dL
- K (6 h): 4.2 meq/L
- LDH (6 h): 61.4 IU/L
- Na (6 h): 140.6 meq/L
- PL (6 h): 132.2 mg/dL
- RALB (6 h): 2.4 g/dL
- TBIL (6 h): 0.062 mg/dL
- TC (6 h): 78.2 mg/dL
- TG (6 h): 36.2 mg/dL
- TP (6 h): 5.2 g/dL
- gamma-GTP (6 h): 1 IU/L
- TERMINAL_BW (9 h): 179.5 g
- APTT (9 h): 15.7 s
- Bas (9 h): 0%
- Eos (9 h): 0.6%
- Fbg (9 h): 260 mg/dL
- Hb (9 h): 12.7 g/dL
- Ht (9 h): 39.8%
- Lym (9 h): 75%
- MCH (9 h): 21.6 pg
- MCHC (9 h): 32%
- MCV (9 h): 67.5 fL
- Mono (9 h): 2.4%
- Neu (9 h): 21.4%
- PT (9 h): 14.5 s
- Plat (9 h): 109.4 x10_4/uL
- RBC (9 h): 590.6 x10_4/ul
- Ret (9 h): 10.5%
- WBC (9 h): 64.3 x10_2/uL
- KIDNEY_L (9 h): 0.8 g
- KIDNEY_R (9 h): 0.8 g
- KIDNEY_TOTAL (9 h): 1.6 g
- LIVER (9 h): 7.1 g
- A/G (9 h): 0.9
- ALP (9 h): 1214.2 IU/L
- ALT (9 h): 47.8 IU/L
- AST (9 h): 79.4 IU/L
- BUN (9 h): 8.8 mg/dL
- CRE (9 h): 0.2 mg/dL
- Ca (9 h): 11 mg/dL
- Cl (9 h): 105 meq/L
- DBIL (9 h): 0.012 mg/dL
- GLC (9 h): 169 mg/dL
- IP (9 h): 10.6 mg/dL
- K (9 h): 3.9 meq/L
- LDH (9 h): 55.2 IU/L
- Na (9 h): 142 meq/L
- PL (9 h): 139.4 mg/dL
- RALB (9 h): 2.4 g/dL
- TBIL (9 h): 0.062 mg/dL
- TC (9 h): 85.2 mg/dL
- TG (9 h): 25 mg/dL
- TP (9 h): 5.2 g/dL
- gamma-GTP (9 h): 1.4 IU/L
- TERMINAL_BW (24 h): 194.2 g
- APTT (24 h): 17.5 s
- Bas (24 h): 0%
- Eos (24 h): 0.8%
- Fbg (24 h): 246.6 mg/dL
- Hb (24 h): 13 g/dL
- Ht (24 h): 40.1%
- Lym (24 h): 76.8%
- MCH (24 h): 22 pg
- MCHC (24 h): 32.4%
- MCV (24 h): 67.8 fL
- Mono (24 h): 3.2%
- Neu (24 h): 18.6%
- PT (24 h): 14.8 s
- Plat (24 h): 111.2 x10_4/uL
- RBC (24 h): 592.4 x10_4/ul
- Ret (24 h): 9.7%
- WBC (24 h): 96.7 x10_2/uL
- KIDNEY_L (24 h): 0.8 g
- KIDNEY_R (24 h): 0.9 g
- KIDNEY_TOTAL (24 h): 1.7 g
- LIVER (24 h): 9 g
- A/G (24 h): 0.9
- ALP (24 h): 1711.4 IU/L
- ALT (24 h): 48.4 IU/L
- AST (24 h): 74.4 IU/L
- BUN (24 h): 14.8 mg/dL
- CRE (24 h): 0.2 mg/dL
- Ca (24 h): 11.3 mg/dL
- Cl (24 h): 104.8 meq/L
- DBIL (24 h): 0.012 mg/dL
- GLC (24 h): 177.6 mg/dL
- IP (24 h): 8 mg/dL
- K (24 h): 3.7 meq/L
- LDH (24 h): 61.2 IU/L
- Na (24 h): 142 meq/L
- PL (24 h): 149.2 mg/dL
- RALB (24 h): 2.5 g/dL
- TBIL (24 h): 0.044 mg/dL
- TC (24 h): 82.2 mg/dL
- TG (24 h): 72.4 mg/dL
- TP (24 h): 5.4 g/dL
- gamma-GTP (24 h): 1 IU/L
